Consider 14 compounds from patent US12668584B2, “Heterocyclic compounds as kinase inhibitors for therapeutic uses” (National Health Research Institutes, priority 2019, dated 2026).

In assay [1] the test system is BaF3-CSF1R-1600 cells (express ETV6-CSF1R fusion protein). As to the kind of experiment: MTS cell viability assay, BaF3-CSF1R-1600. Format: cell-based. Particulars: 72 h, read-out: Cellular Proliferation Assay BaF3-CSF1R GI50. On the procedure:
(§1) Studies were conducted to evaluate […] anticancer activity of certain compounds described in EXAMPLE 1 using 3-(4,5-dimethylthiazol-2-yl)-5-(3-carboxymethoxyphenyl)-2-(4-sulfophenyl)-2H-tetrazolium) (MTS) cell viability assays. Results from these studies are shown in Table 2 below (see columns 3 and 4).
(§2) The cell lines M-NFS-60 (ATCC® CRL-1838™) and BaF3-CSF1R-1600 were obtained from American Type Culture Collection (ATCC, Manassas, VA, USA). The stable BaF3-CSF1R-1600 cell line expresses ETV6-CSF1R fusion protein consisting of N-terminal ETS-variant gene 6 protein (ETV6 residues M1-G337) and CSF1R tyrosine kinase (CSF1R residues L533-C972). The M-NSF-60 and BaF3-CSF1R-1600 cells were cultured in RPMI1640 medium supplemented with 10% fetal bovine serum, 0.05 mM 2-ME, 10 U/ml penicillin, and 10 µg/ml streptomycin at 37° C. and 5% CO2.
(§3) M-NFS-60 and BaF3-CSF1R-1600 cells were seeded in 96-well plates at a density of 10000 cells/100 μl and 8000 cells/100 μl per well, respectively, for 16 h and treated with vehicle or various concentrations of test compounds in medium for 72 h. Viable cells were quantified using the MTS method (Promega, Madison, WI, USA) according to manufacturer's recommended protocol. The results were determined by measuring absorbance at 490 nm using a plate reader (Victor 2). The GI50 value was defined as the amount of compound that caused 50% reduction in cell viability in comparison with DMSO-treated (vehicle) control and was calculated using Prism GraphPad Prism version 6 software (GraphPad).
In general terms: Tetrazolium assays rely on reduction of a dye to a coloured formazan, in cell work by metabolically active cells.

The test system of another assay is M-NFS-60 cells. Put plainly: MTS cell viability assay, M-NFS-60. Format: cell-based. Conditions: 72 h, read-out: Cellular Proliferation Assay M-NFS-60 (nM) GI50. The protocol: as §1, §2, §3
Assay [2] concerns the target T1, CSF1R kinase (recombinant N-terminal GST-CSF1R, residues L534-C972) (Homo sapiens, UniProt P07333).
T1 construct: Recombinant N-terminal GST-CSF1R (CSF1R residues L534-C972) containing the CSFIR kinase domain; made in house; host or cells: Sf9 insect cells
T1 sequence (P07333 534-972): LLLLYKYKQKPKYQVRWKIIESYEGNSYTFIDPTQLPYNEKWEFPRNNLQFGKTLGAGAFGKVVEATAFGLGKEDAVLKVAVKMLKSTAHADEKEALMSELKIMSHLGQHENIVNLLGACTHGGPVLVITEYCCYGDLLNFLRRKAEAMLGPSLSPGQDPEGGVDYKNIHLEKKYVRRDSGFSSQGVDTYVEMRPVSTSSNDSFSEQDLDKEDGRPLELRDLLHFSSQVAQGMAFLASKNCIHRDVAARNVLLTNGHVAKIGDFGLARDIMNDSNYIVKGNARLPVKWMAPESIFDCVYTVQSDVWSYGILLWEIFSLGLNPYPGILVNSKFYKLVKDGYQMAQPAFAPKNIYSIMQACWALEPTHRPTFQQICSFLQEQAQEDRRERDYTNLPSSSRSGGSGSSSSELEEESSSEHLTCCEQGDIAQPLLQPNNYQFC
As to the kind of experiment: CSF1R Kinase-Glo assay. Format: biochemical. Conditions: 40 μM ATP, 30° C. 180 min, read-out: Enzymatic Assay CSF1R enzyme IC50. On the procedure:
A study was conducted to test certain compounds described in EXAMPLE 1 in inhibiting CSF1R kinase activity.
Activity of CSF1R kinase was determined using a CSF1R Kinase-Glo assay. Recombinant N-terminal GST-CSF1R (CSF1R residues L534-C972) containing the CSFIR kinase domain was expressed in Sf9 insect cells and purified. The kinase assay was carried out in 96-well plates at 30° C. for 180 min with the tested compounds in a final volume of 50 μl including the following components: 25 mM Tris-HCl pH 7.4, 4 mM MnCl2, 10 mM MgCl2, 0.01% BSA, 0.5 mM NA3VO4, 0.02% Triton X-100, 40 μM ATP, 2 mM DTT and 20 μM poly(Glu,Tyr) 4:1 peptide, and 600 ng recombinant GST-CSF1R. Following incubation, 50 μl Kinase-Glo Plus Reagent (Promega, Madison, WI, USA) was added and the mixture was incubated at 25° C. for 20 min. A 70-μL aliquot of each reaction mixture was transferred to a black microtiter plate and luminescence was measured on Wallac Vector 1420 multilabel counter (PerkinElmer, Shelton, CT, USA). Percentage inhibition values were obtained by comparison of reaction rate with the rates in control wells (i.e., in the absence of test compound). IC50 values were calculated from a series of percentage inhibition values determined at a range of test compound concentrations using GraphPad Prism version 6 software (GraphPad, San Diego, CA, USA).
A general note: Kinase-Glo measures the ATP left after a reaction by luminescence.

Where only a bound is given, the exact number is not on record here.

By IC50 is commonly meant the midpoint of a concentration-inhibition curve. For `COc1ccc(CNC(=O)Nc2ccc(Oc3ncnc4cc(N(C)C)ccc34)cc2)cc1` [Compound 59], the GI50 (in assay [1]; in the assay with M-NFS-60 cells) was 20 to 100 nM in each case. The concentration for half-maximal inhibition (IC50) in assay [2] is under 20 nM.

Take `CN(C)c1ccc2c(Oc3ccc(NC(=O)NCc4ccco4)cc3)ncnc2c1` [Compound 63]: the GI50 (in assay [1]; in the assay with M-NFS-60 cells) was 100 to 1000 nM each time. Further, in assay [2], the IC50 was in the range of 20 to 100 nM.

Take `Cc1ccc(CNC(=O)Nc2ccc(Oc3ncnc4cc(N(C)C)ccc34)cc2)cn1` [Compound 65, 1-(4-((7-(dimethylamino)quinazolin-4-yl)oxy)phenyl)-3-((6-methylpyridin-3-yl)methyl)urea]: the GI50 (in assay [1]; in the assay on M-NFS-60 cells) was 20 to 100 nM throughout. The IC50 in assay [2] is under 20 nM.

On to `CN(C)c1ccc2c(Oc3ccc4c(cnn4C(=O)NCc4ccc(C(F)(F)F)nc4)c3)ncnc2c1` [Compound 68], for which the GI50 in assay [1] fell in the range of 20 to 100 nM; in the assay on M-NFS-60 cells, 100 to 1000 nM. Also, the IC50 in assay [2] lay within 20 to 100 nM.

Consider `C[C@@H]1CN(c2ccc3c(Oc4ccc(NC(=O)NCc5ccc(C(F)(F)F)nc5)cc4)ncnc3c2)C[C@H](C)N1C` [Compound 97], for which the GI50 (in assay [1]; in the assay with M-NFS-60 cells) was 20 to 100 nM in each case. The concentration for half-maximal inhibition (IC50) in assay [2] is 20 to 100 nM.

For the compound `O=C(NCc1ccc(C(F)(F)F)nc1)Nc1ccc(Oc2ncnc3cc(N4CCN(C5COC5)CC4)ccc23)cc1` [Compound 98], the figures for the GI50 (in assay [1]; in the assay on M-NFS-60 cells) were under 20 nM and 20 to 100 nM, respectively. Also, the IC50 in assay [2] was under 20 nM.

Regarding `O=C(NCc1ccc(C(F)(F)F)nc1)Nc1ccc(Oc2ncnc3cc(N4CCOCC4)ccc23)cc1` [Compound 99], the GI50 (in assay [1]; in the assay on M-NFS-60 cells) was 20 to 100 nM throughout. Also, the half-inhibitory concentration (IC50) in assay [2] is under 20 nM.

Consider `CCN1CCN(c2ccc3c(Oc4ccc(NC(=O)NCc5ccc(C(F)(F)F)nc5)cc4)ncnc3c2)CC1` [Compound 100], for which the GI50 (in assay [1]; in the assay on M-NFS-60 cells) was 20 to 100 nM in each case. In assay [2], the IC50 is under 20 nM.

Take `CN(C)c1ccc2c(Oc3ccc(NC(=O)NCc4nccs4)cc3)ncnc2c1` [Compound 101]: the GI50 (in assay [1]; in the assay on M-NFS-60 cells) was 100 to 1000 nM in each case. In addition, in assay [2], the IC50 fell in the range of 20 to 100 nM.

For `CN(C)c1ccc2c(Oc3ccc4nc(NCc5ccc(C(F)(F)F)nc5)oc4c3)ncnc2c1` [Compound 102], the GI50 in assay [1] is 100 to 1000 nM; in the assay on M-NFS-60 cells it was over 1000 nM. In assay [2], the IC50 lay within 20 to 100 nM.

Consider `COc1ccc(Cl)cc1NC(=O)Nc1ccc(Oc2ncnc3cc(N(C)C)ccc23)cc1` [Compound 104], for which the results for the GI50 (in assay [1]; in the assay on M-NFS-60 cells) were 20 to 100 nM and 100 to 1000 nM, respectively. Moreover, the IC50 in assay [2] was 20 to 100 nM.

As to `COc1ccc(NC(=O)Nc2ccc(Oc3ncnc4cc(N(C)C)ccc34)cc2)cc1Cl` [Compound 105], the GI50 (in assay [1]; in the assay on M-NFS-60 cells) was 20 to 100 nM in each case. The IC50 in assay [2] fell in the range of 20 to 100 nM.

For the compound `CN(C)c1ccc2c(Oc3ccc(NC(=O)Nc4ccc(F)cc4)cc3)ncnc2c1` [Compound 106], the GI50 in assay [1] is over 1000 nM; in the assay with M-NFS-60 cells, 100 to 1000 nM. For the same compound, the half-maximal inhibitory concentration (IC50) in assay [2] was under 20 nM.

For `COCCN1CCN(c2ccc3c(Oc4ccc(NC(=O)NCc5ccc(C(F)(F)F)nc5)cc4)ncnc3c2)CC1` [Compound 108], the GI50 (in assay [1]; in the assay with M-NFS-60 cells) was 20 to 100 nM in each case. Moreover, the IC50 in assay [2] is 20 to 100 nM.
